# Measured values reported in patent US8198033B2, “Methods and materials for observing apoptosis” (Genentech, Inc., priority 2006, dated 2012).
# Legend:
# Assay type in all cases: cell-based, human
# [1] = test system: AP2α, AP1/2β, clathrin heavy chain (CHC), dynamin; assay: Immunoblot for cleavage of clathrin-dependent endocytosis machinery and caspases in cell lysates
# Protocol: (b) Colo205 cells were treated as in (a) and analyzed by immunoblot for processing of specific components of various types of clathrin-associated endocytic trafficking.
# Open arrows indicate cleavage products and solid arrows indicate full-length proteins.
# (c) BJAB cells were treated with crosslinked Apo2L/TRAIL and processing of dynamin was determined by immunoblot.
# The cells were analyzed by immunoblot for processing of caspase-8, caspase-9, caspase-3, and AP2α.
# Human colorectal adenocarcinoma Colo205 cells human B cell lymphoma BJAB cells and human T cell carcinoma Jurkat wild type cells (A3 clone), FADD-deficient (E1) and caspase-8-deficient (I9.3) were cultured in RPMI 1640+10% fetal bovine serum (FBS)+2 mM glutamine+1000 U/ml Penicillin-Streptomycin (Life Technologies). Human cervical carcinoma HeLa-M cells human breast adenocarcinoma MCF7 and human colorectal adenocarcinomas HCT15, HCT8, SW948, Colo320, human fibrosarcoma HT180 (ATCC), HCT116 Bax(−/−), HCT116 Bax(+/−) were grown in 50:50 Dulbecco's modified Eagle's and FK12 medium+10% FBS+1000 U/ml Penicillin-Streptomycin. cDNA clones encoding temperature-sensitive dynamins were the G273D mutant and dominant negative K44A mutant dynamin-1 (Dyn^G273D and Dyn^K44A, respectively). Dyn^G273D was expressed from pHUSH-ProEx, a single retroviral plasmid tetracycline-inducible expression system constructed at Genentech. The cDNA was first cloned into a shuttle plasmid containing a CMV enhancer-promoter sequence with two copies of the tetracycline operator TetO2, then transferred via in vitro phage lamda-based recombination, or Gateway® technology (Invitrogen, Carlsbad), to a Moloney murine leukemia virus backbone vector in which the wild type Tet repressor is driven by a separate β-actin promoter and followed by an internal ribosomal entry sequence and puromycin selection cassette. Dyn^K44A was expressed from the 2-vector tetracycline-inducible retroviral expression system, pRevTet-On/pRev-Tre (Clontech), using serial infections. Retroviral vectors were transfected into Phoenix amphotropic Moloney Murine Leukemia Virus packaging cells using Lipofectamine 2000 […]. Retroviral particles were harvested and used in HeLa-M and BJAB cell infections as described previously (Simpson et al. J Cell Biol 137, 835-45, 1997). Dyn^G273 infected cells were puromycin selected (2-3 μg/ml) for 1-2 weeks and cloned either by manually picking individual HeLa-M colonies or by FACS sorting of resistant BJAB cells (gated for exclusion of propidium iodide) and single cell seeding in 96-well cell culture plates using an EPICS ELITE-ESP equipped with an Autoclone device (Coulter, Hialeah, Fla.). Cell clones were screened for uniformity of doxycycline inducible dynamin-1 expression by immunofluorescence microscopy. Dyn^K44A-infected cells were hygromycin B (400 μg/ml) and G418 (1 mg/ml) selected for 1-2 weeks. Induction with doxycycline (1 μg/ml) was performed at 32° C. for 72 hr as described previously (Damke et al. J Cell Biol 131, 69-80 1995). Vincristine sulfate (#T-117), Adriamycin.HCL (GR-319) were purchased from Biomol, tetracycline-free FBS from Hyclone, Puromycin from Clontech and Doxycyclin from Sigma. zVAD-fmk (asN-benzyloxycarbonyl-Val-Ala-Asp-fluoromethylketone) was obtained from MD Biosciences (#FK-009). […]
# BJAB and Colo205 cells = assay: Transferrin (Tf) endocytosis rate by flow cytometry
# Protocol: The cells were then equilibrated on ice for 30 min with Alexa-647-conjugated Tf (^647TF) and uptake at 37° C. was measured by flow cytometry. Each endocytosis rate was derived from the slope of the initial linear phase of a 4 min uptake kinetics plot (a, inset). […] Rates were normalized to the DMSO treated sample (±SEM).
# Sedimented cells were resuspended in cold 2% paraformaldehyde/PBS and mean fluorescence intensity of 10,000 cells quantified with a Coulter Epics Elite-ESP flow cytometer (Hialeah, Fla.). Endocytic rates were determined from linear slopes of steady-state internal/surface plots (see, e.g., Wiley, H. S. et. al, J Biol Chem 257, 4222-9 (1982)). For temperature-shift experiments, ice binding incubations were avoided. Instead, cells were preconditioned for 20 min and maintained at 30° C. or 38° C. in binding medium, incubated an additional 0 (control) or 20 min with ^647Tf, chilled on ice for 30 min, and processed for flow cytometry to determine internal/surface ^647Tf ratios.
# DR5 = assay: Temperature-shift DR5 uptake in DynG273D-transduced BJAB cells; settings: doxycyclin-stimulated dynG273D expression, 20 min
# Protocol: (a-d) Dyn^G273D-transduced HeLa-M cells were puromycin-selected, doxycycline-induced, pre-incubated for 20 min at the indicated temperature, then incubated another 20 min in the presence of Alexa-488 conjugated Tf (^488Tf). Cells were then processed for immunofluorescence microscopy using a dynamin-1 specific antibody. (e, f) Nontransduced (parental) or clonal Dyn1^G273D-transduced BJAB cells with (+dox) or without (no dox) doxycycline induction were assayed for ^488Tf or ^6475C7 uptake over a 20 min period at 30° C. (white bars) or 38° C. (black bars) by flow cytometry and means plotted (±SD).
# Cells were acid stripped or not and quantified by flow cytometry.
# DISC = DISC immunoprecipitation
# Protocol: (a) BJAB cells were equilibrated with ^647Tf on ice, incubated for the indicated uptake interval at 37° C. or on ice, then fluorescence quantified by flow cytometry. […] DISC-associated FADD and caspase-8 were visualized by immunoblot. (c, d) Dyn^G273D-transduced BJAB cells were treated with buffer (No Dox) or doxycyline (Dox) and shifted to 38° C. for 20 min to inactivate dynamin. The cells were treated with crosslinked Apo2L/TRAIL for the indicated amounts of time and the DISC was immunoprecipitated. DISC-associated FADD and caspase-8 were visualized by immunoblot (c) or DISC-associated caspase-8 activity was measured as described previously (Sharp et al. J Biol Chem 280, 19401-409, 2005).
# BJAB cells (1×10^7 per time point) were treated with Flag-Apo2L/TRAIL cross-linked by anti-FLAG M2 Abs, collected, lysed, immunoprecipitated and the DISC was analyzed as described (see, e.g., Kischkel, F. C. et al., Immunity 12, 611-20 (2000)).
# caspase-3/7 = assay: Caspase-3/7 activity assay (Apo-One); settings: after induction of dynG273D, 38° C. compared to 30° C.
# Protocol: The caspase-3/7 assay was performed using Apo-One Homogenous Caspase-3/7 Assay (Promega). […] Lysates were incubated at room temperature for 1 hour before reading in a fluorometer at 485/530 […].
# [2] = test system: DynG273D-transduced BJAB cells; assay: Apoptosis assay (sub-diploid DNA, DNA fragmentation); settings: induction of dynG273D and temperature-shift to 38° C.
# Protocol: Cells were stained with propidium iodide after ethanol fixation and RNase treatment and the amount of sub-diploid DNA was analyzed by flow cytometry as previously described, using Expo32 software with an Epics XL.MCL cytometer (Coulter Beckman), (see, e.g., Nicholson, D. W., Cell Death Differ 6, 1028-42 (1999)).
# [3] = MCF7 cells, deficient in caspase-3
substance,measurement,setting,value
"Apo2L/TRAIL: Human recombinant soluble Apo2L/TRAIL in non-tagged (trimeric) or Flag-tagged, antibody-crosslinked versions; SEQ ID NO: 7",Start of depletion of full-length dynamin after stimulation,"[1]; BJAB cells, crosslinked Apo2L/TRAIL",≤ 1 h
same,Cleavage of AP2α isoform C,"[1]; BJAB, Colo205, LS1034 and SW948 cells",did not induce cleavage of isoform C
same,Caspase processing,[1]; Bax+/- HCT116 cells,stimulated processing of both caspase-8 and -3
same,Caspase processing,[1]; Bax-/- HCT116 cells,only of caspase-8
same,"Proteolysis of structurally analogous adaptors (AP1α, AP3β and δ, AP4ε, β-COP, Sec23)","[1]; Colo205 cells, similar timeframe",did not induce proteolysis
same,CHC cleavage,[1]; [3],did not stimulate CHC cleavage
same,Processing of caspase-8 and AP2α,[1]; [3],relatively weak and slow processing of caspase-8 and AP2α
same,Processing of AP2α and CHC,[1]; caspase-8-deficient or FADD-deficient mutant Jurkat cell lines,neither ligand stimulated processing of these targets
same,"Processing of caspase-8 and -3 and cleavage of AP2α, AP1/2β and CHC","[1]; several cancer cell lines, susceptible Colo205, BJAB, HeLa-M, not resistant HCT8","cleavage of AP2α, AP1/2β, and clathrin heavy-chain (CHC)"
same,"Time within which caspase processing and AP2α, AP1/2β, CHC cleavage occurred","[1]; susceptible cell lines Colo205, BJAB, HeLa-M",≤ 2 h
same,Cleavage of AP2α and CHC,[1]; wt Jurkat T cells,induced cleavage of AP2α and CHC
same,Inhibition of the rate of Tf endocytosis,"BJAB and Colo205 cells; BJAB and Colo205 cells, pretreatment at 37° C.",75-85%
same,Reduction of Tf endocytosis rate,"BJAB and Colo205 cells; Colo205 cells, extended exposure for 2 hr at 37° C.",5 fold
same,Ligand-induced DR5 uptake,DR5; 30° C.,~25%
same,Ligand-induced DR5 uptake,DR5; 38° C.,~10%
same,DISC assembly with Tf endocytosis blocked,DISC; BJAB cells chilled on ice,still recruited FADD and caspase-8 to their respective receptors and processed caspase-8
same,"DISC formation, caspase-8 processing and activity despite endocytosis inhibition","DISC; dynG273D BJAB cells, 38° C.","comparable DISC formation, caspase-8 processing, and caspase-8 activity in the DISC"
same,Ligand-stimulated caspase-3/7 enzymatic activity,caspase-3/7,substantial increase
same,Apoptosis (cells with fragmented DNA),[2],augmented apoptosis
